Experimental data taken from patent US20130137629A1, “COMBINATION TREATMENT FOR METABOLIC DISORDERS” (WELLSTAT THERAPEUTICS CORPORATION, priority 2006, published 2013).

What was measured:
db/db mice [1] = test: Example 5: ten week-old db/db mice, Compound BI +/- P32/98 for 4 weeks; format: in vivo; settings: Compound BI 100 mg/kg p.o., P32/98 10 mg/kg twice a day by gavage; for Circulating glucose levels: FIG. 11; for Pancreatic insulin: FIG. 12
Method: Ten week-old db/db mice were given vehicle or Compound BI (100 mg/kg, p.o.)+/−P32/98 (10 mg/kg, twice a day by gavage) as indicated for 4 weeks. Assays for circulating glucose and pancreatic insulin were conducted as in Example 3.

[2] = tested on: streptozotocin-induced diabetes; settings: Pospisilik et al., Diabetes 52:741-750, 2003; cited from earlier work
late-stage db/db mice = test: Example 1: late-stage db/db mice treated daily for 4 weeks; serum glucose, serum insulin and islet insulin; format: in vivo
Method: Serum glucose and insulin and pancreatic insulin were measured.

db/db mice [3] = test: Example 2: db/db mice with glucose above 400 mg/dL treated for 4 weeks; circulating glucose and pancreatic insulin (ECL assay); format: in vivo; settings: Compound BI 100 mg/kg by oral gavage, exendin 3 μg/kg or 10 μg/kg i.p.
Method: Peripheral blood glucose levels of db/db mice was monitored. When the glucose levels exceeded 400 mg/dL the mice were divided into groups of 6 mice each. The mice in each group were given either vehicle or Compound BI (100 mg/kg by oral gavage)+/−i.p. injections of exendin-amide (Bachem, King of Prussia, PA) as indicated below for 4 weeks. • 1) Vehicle • 2) Vehicle+Exendin (3 μg/kg) • 3) Vehicle+Exendin (10 μg/kg) • 4) Compound BI • 5) Compound BI+Exendin (3 μg/kg) • 6) Compound BI+Exendin (10 μg/kg)
After four weeks of treatment, the mice were bled via the retroorbital sinus and sera sent to Anilytics, Inc. (Gaithersburg, Md.) for analysis of circulating glucose levels. The pancreata were collected, weighed, flash frozen and then processed for pancreatic insulin assays. Briefly, the pancreas was placed into pancreatic extraction solution (75% ethanol and 25% 0.15N HCl) and the volume adjusted to 1 mL per 100 mg of pancreas. The pancreas was then sonicated and stored at −20° C. overnight. The next day, the samples were centrifuged at 2500 rpm for 5 minutes at 4° C. to pellet unsolubilized material. 1.5 mL of supernatant was placed in an Eppendorf tube and spun in a microcentrifuge at 1300 rpm for 20 minutes at 4° C. to pellet any remaining unsolubilized material. […] The samples were then read on an M384 instrument (BioVeris Corp., Gaithersburg, Md.). […]

db/db mice [4] = settings: previous studies; cited from earlier work

SMILES	Circulating glucose levels (db/db mice [1])	Pancreatic insulin (db/db mice [1])	Activity in streptozotocin-induced diabetes [2]	Serum glucose (late-stage db/db mice; daily for 4 weeks, Compound BI 100 mg/kg/day p.o., Exendin-4 amide 10 microgram/day i.p., FIG. 1)	Islet insulin (late-stage db/db mice; daily for 4 weeks, Compound BI 100 mg/kg/day p.o., Exendin-4 amide 10 microgram/day i.p., FIG. 2)	Serum insulin (late-stage db/db mice; daily for 4 weeks, Compound BI 100 mg/kg/day p.o., Exendin-4 amide 10 microgram/day i.p., FIG. 3)	Insulin resistance (late-stage db/db mice; inferred from glucose lowering without a significant increase in serum insulin, 4 weeks)	Circulating glucose levels (db/db mice [3]; FIG. 4)	Pancreatic insulin (db/db mice [3]; FIG. 5)	Islet insulin content (db/db mice [4])
CC[C@H](C)[C@H](N)C(=O)N1CCSC1 [P32/98, reference compound]	slight reduction in circulating glucose levels	no increase in pancreatic insulin	active							
Cc1cccc(C)c1COc1cccc(C(=O)CCC(=O)O)c1 [Compound BI, 4-(3-(2,6-Dimethylbenzyloxy)phenyl)-4-oxobutyric acid]	reduced circulating glucose levels	increased pancreatic insulin levels		reduced serum glucose substantially	had more insulin than either of those two groups	without a significant increase in serum insulin	reduced insulin resistance	significant reduction in circulating glucose levels	corresponding increase in pancreatic insulin	preserves islet insulin content
